Test results published in patent US12564638B2 (SHANGHAITECH UNIVERSITY, priority 2019, dated 2026).
Read-outs that look alike come from different tables or passages of the source.

Test system: HCC827 cells (EGFR Exon19 del, non-small cell lung cancer cells)
Assay: Cell viability assay (WST/CCK8), HCC827 cells
Assay type: cell-based
Conditions: Homo sapiens, HCC827, 72 h, HCC827 (Exon19 Del), 72 hours, read-out: IC50 (half inhibitory concentration)
Source text: The cell lines with abnormal EGFR expression used are as follows: • HCC827 cells (EGFR Exon19 del, non-small cell lung cancer cells); • PC9 cells (EGFR Exon 19 del, non-small cell lung cancer cells); • PC9BracA1 (EGFR Exon 19 del+T790M, non-small cell lung cancer cells) • H1975 (EGFR Exon T790M+L858R mutation, non-small cell lung cancer cell line) • BT474 cells (HER2 positive breast cancer cells)
All of the half inhibitory concentrations (IC50) of these compounds of the present invention were determined with WST reagent from Fuyuan Biotec Company. The specific experiment procedures are as follows: Cancer cells were planted in 96-well-plate at the density of 3 000 cells per well with 100 μL RPMI1640 completed culture medium. In the next day, compounds with indicated concentrations were added to the cells, DMSO was used as the negative control and the EGFR TKIs were used to treat cells as the positive groups. After 72 hours drug treatment, cell viability was measured by using the WST reagent following the instructions.
The cells were treated with the gradient concentration of these compounds (the maximum concentration: 10 μM; 3-fold dilution ratio, 10 concentration gradients) for 72 hours and then incubated with the WST (CCK8) reagent to determine the cell viability.

[1] = Table 4, gefitinib and sapitinib-based compounds, WST
[2] = Table 5, afatinib-based compounds, WST
[3] = Table 3, poziotinib-based compounds, WST (CCK8)

Row | IC50 [1] [nM] | IC50 [2] [nM] | SMILES | further results
1 |  |  | C=CC(=O)Nc1cc2c(Nc3ccc(F)c(Cl)c3)ncnc2cc1OCCCN1CCNCC1 [Caneritinib derivative A (SIAIS293064), N-(4-((3-chloro-4-fluorophenyl)amino)-7-(3-(piperazin-1-yl)propoxy)quinazolin-6-yl)acrylamide] | IC50 (Table 6, canertinib-based compounds, WST): 4.5 nM
2 | 10 |  | COc1cc2ncnc(Nc3ccc(F)c(Cl)c3)c2cc1OCCCN1CCNCC1 [Gefitinib derivative A (SIAIS184161), N-(3-chloro-4-fluorophenyl)-7-methoxy-6-(3-(piperazin-1-yl)propoxy)quinazolin-4-amine] | 
3 | 575 |  | COc1cc2ncnc(Nc3ccc(F)c(Cl)c3)c2cc1OC1CCN(CC(=O)O)CC1 [Gefitinib derivative C (SIAIS293033), 2-(4-((4-((3-chloro-4-fluorophenyl)amino)-7-methoxyquinazolin-6-yl)oxy)piperidin-1-yl)acetic acid] | 
4 |  | 86.2 | O=C1CCC(N2C(=O)c3cccc(SCC(=O)Nc4cc5c(Nc6ccc(F)c(Cl)c6)ncnc5cc4O[C@H]4CCOC4)c3C2=O)C(=O)N1 (stereo partly drawn) [SIAIS184093, N-(4-((3-chloro-4-fluorophenyl)amino)-7-(((S)-tetrahydrofuran-3-yl)oxy)quinazolin-6-yl)-2-((2-(2,6-dioxopiperidin-3-yl)-1,3-dioxoisoindolin-4-yl)thio)acetamide] | 
5 |  | 105 | O=C1CCC(N2C(=O)c3cccc(SCCCC(=O)Nc4cc5c(Nc6ccc(F)c(Cl)c6)ncnc5cc4O[C@H]4CCOC4)c3C2=O)C(=O)N1 (stereo partly drawn) [SIAIS184094, N-(4-((3-chloro-4-fluorophenyl)amino)-7-(((S)-tetrahydrofuran-3-yl)oxy)quinazolin-6-yl)-4-((2-(2,6-dioxopiperidin-3-yl)-1,3-dioxoisoindolin-4-yl)thio)butanamide] | 
6 |  | 174 | O=C1CCC(N2C(=O)c3cccc(SCCCCCC(=O)Nc4cc5c(Nc6ccc(F)c(Cl)c6)ncnc5cc4O[C@H]4CCOC4)c3C2=O)C(=O)N1 (stereo partly drawn) [SIAIS184095, N-(4-((3-chloro-4-fluorophenyl)amino)-7-(((S)-tetrahydrofuran-3-yl)oxy)quinazolin-6-yl)-6-((2-(2,6-dioxopiperidin-3-yl)-1,3-dioxoisoindolin-4-yl)thio)hexanamide] | 
7 |  | 131 | O=C1CCC(N2C(=O)c3cccc(SCCOCC(=O)Nc4cc5c(Nc6ccc(F)c(Cl)c6)ncnc5cc4O[C@H]4CCOC4)c3C2=O)C(=O)N1 (stereo partly drawn) [SIAIS184152, N-(4-((3-chloro-4-fluorophenyl)amino)-7-(((S)-tetrahydrofuran-3-yl)oxy)quinazolin-6-yl)-2-(2-((2-(2,6-dioxopiperidin-3-yl)-1,3-dioxoisoindolin-4-yl)thio)ethoxy)acetamide] | 
8 |  | 316 | O=C1CCC(N2C(=O)c3cccc(SCCOCCOCC(=O)Nc4cc5c(Nc6ccc(F)c(Cl)c6)ncnc5cc4O[C@H]4CCOC4)c3C2=O)C(=O)N1 (stereo partly drawn) [SIAIS184153, N-(4-((3-chloro-4-fluorophenyl)amino)-7-(((S)-tetrahydrofuran-3-yl)oxy)quinazolin-6-yl)-2-(2-(2-((2-(2,6-dioxopiperidin-3-yl)-1,3-dioxoisoindolin-4-yl)thio)ethoxy)ethoxy)acetamide] | 
9 |  | 250 | O=C1CCC(N2C(=O)c3cccc(SCCOCCOCCOCC(=O)Nc4cc5c(Nc6ccc(F)c(Cl)c6)ncnc5cc4O[C@H]4CCOC4)c3C2=O)C(=O)N1 (stereo partly drawn) [SIAIS184154, N-(4-((3-chloro-4-fluorophenyl)amino)-7-(((S)-tetrahydrofuran-3-yl)oxy)quinazolin-6-yl)-2-(2-(2-(2-((2-(2,6-dioxopiperidin-3-yl)-1,3-dioxoisoindolin-4-yl)thio)ethoxy)ethoxy)ethoxy)acetamide] | 
10 |  | 79 | O=C1CCC(N2C(=O)c3cccc(SCCOCCOCCOCCOCC(=O)Nc4cc5c(Nc6ccc(F)c(Cl)c6)ncnc5cc4O[C@H]4CCOC4)c3C2=O)C(=O)N1 (stereo partly drawn) [SIAIS184155, N-(4-((3-chloro-4-fluorophenyl)amino)-7-(((S)-tetrahydrofuran-3-yl)oxy)quinazolin-6-yl)-14-((2-(2,6-dioxopiperidin-3-yl)-1,3-dioxoisoindolin-4-yl)thio)-3,6,9,12-tetraoxatetradecan-1-amide] | 
11 |  | 978 | O=C1CCC(N2C(=O)c3cccc(SCCOCCOCCOCCOCCOCC(=O)Nc4cc5c(Nc6ccc(F)c(Cl)c6)ncnc5cc4O[C@H]4CCOC4)c3C2=O)C(=O)N1 (stereo partly drawn) [SIAIS184156, N-(4-((3-chloro-4-fluorophenyl)amino)-7-(((S)-tetrahydrofuran-3-yl)oxy)quinazolin-6-yl)-17-((2-(2,6-dioxopiperidin-3-yl)-1,3-dioxoisoindolin-4-yl)thio)-3,6,9,12,15-pentaoxaheptadecan-1-amide] | 
12 | 47 |  | COc1cc2ncnc(Nc3ccc(F)c(Cl)c3)c2cc1OCCCN1CCN(C(=O)CSc2cccc3c2C(=O)N(C2CCC(=O)NC2=O)C3=O)CC1 (centres unmarked) [SIAIS184164, 4-((2-(4-(3-((4-((3-chloro-4-fluorophenyl)amino)-7-methoxyquinazolin-6-yl)oxy)propyl)piperazin-1-yl)-2-oxoethyl)thio)-2-(2,6-dioxopiperidin-3-yl)isoindoline-1,3-dione] | 
13 | 58 |  | COc1cc2ncnc(Nc3ccc(F)c(Cl)c3)c2cc1OCCCN1CCN(C(=O)CCCSc2cccc3c2C(=O)N(C2CCC(=O)NC2=O)C3=O)CC1 (centres unmarked) [SIAIS184165, 4-((4-(4-(3-((4-((3-chloro-4-fluorophenyl)amino)-7-methoxyquinazolin-6-yl)oxy)propyl)piperazin-1-yl)-4-oxobutyl)thio)-2-(2,6-dioxopiperidin-3-yl)isoindoline-1,3-dione] | 
14 | 186 |  | COc1cc2ncnc(Nc3ccc(F)c(Cl)c3)c2cc1OCCCN1CCN(C(=O)COCCOCCOCCOCCOCCSc2cccc3c2C(=O)N(C2CCC(=O)NC2=O)C3=O)CC1 (centres unmarked) [SIAIS184170, 4-((17-(4-(3-((4-((3-chloro-4-fluorophenyl)amino)-7-methoxyquinazolin-6-yl)oxy)propyl)piperazin-1-yl)-17-oxo-3,6,9,12,15-pentaoxaheptadecyl)thio)-2-(2,6-dioxopiperidin-3-yl)isoindoline-1,3-dione] | 
15 | 100 |  | COc1cc2ncnc(Nc3ccc(F)c(Cl)c3)c2cc1OCCCN1CCN(C(=O)CSc2cccc3c2CN(C2CCC(=O)NC2=O)C3=O)CC1 (centres unmarked) [SIAIS184184, 3-(4-((2-(4-(3-((4-((3-chloro-4-fluorophenyl)amino)-7-methoxyquinazolin-6-yl)oxy)propyl)piperazin-1-yl)-2-oxoethyl)thio)-1-oxoisoindolin-2-yl)piperidine-2,6-dione] | 
16 | 113 |  | COc1cc2ncnc(Nc3ccc(F)c(Cl)c3)c2cc1OCCCN1CCN(C(=O)CCCSc2cccc3c2CN(C2CCC(=O)NC2=O)C3=O)CC1 (centres unmarked) [SIAIS184185, 3-(4-((4-(4-(3-((4-((3-chloro-4-fluorophenyl)amino)-7-methoxyquinazolin-6-yl)oxy)propyl)piperazin-1-yl)-4-oxobutyl)thio)-1-oxoisoindolin-2-yl)piperidine-2,6-dione] | 
17 | 124 |  | COc1cc2ncnc(Nc3ccc(F)c(Cl)c3)c2cc1OCCCN1CCN(C(=O)CCCCCSc2cccc3c2CN(C2CCC(=O)NC2=O)C3=O)CC1 (centres unmarked) [SIAIS184186, 3-(4-((6-(4-(3-((4-((3-chloro-4-fluorophenyl)amino)-7-methoxyquinazolin-6-yl)oxy)propyl)piperazin-1-yl)-6-oxohexyl)thio)-1-oxoisoindolin-2-yl)piperidine-2,6-dione] | 
18 |  |  | COc1cc2ncnc(Nc3ccc(Cl)c(Cl)c3F)c2cc1OC1CCN(C(=O)CCCCCSc2cccc3c2C(=O)N(C2CCC(=O)NC2=O)C3=O)CC1 (centres unmarked) [SIAIS249018, 4-((6-(4-((4-((3,4-dichloro-2-fluorophenyl)amino)-7-methoxyquinazolin-6-yl)oxy)piperidin-1-yl)-6-oxohexyl)thio)-2-(2,6-dioxopiperidin-3-yl)isoindoline-1,3-dione] | IC50 [3]: 13.3 nM
19 |  |  | COc1cc2ncnc(Nc3ccc(Cl)c(Cl)c3F)c2cc1OC1CCN(C(=O)CCCCCCSc2cccc3c2C(=O)N(C2CCC(=O)NC2=O)C3=O)CC1 (centres unmarked) [SIAIS249019, 4-((7-(4-((4-((3,4-dichloro-2-fluorophenyl)amino)-7-methoxyquinazolin-6-yl)oxy)piperidin-1-yl)-7-oxoheptyl)thio)-2-(2,6-dioxopiperidin-3-yl)isoindoline-1,3-dione] | IC50 [3]: 38 nM
20 |  |  | COc1cc2ncnc(Nc3ccc(Cl)c(Cl)c3F)c2cc1OC1CCN(C(=O)CCC(=O)N[C@H](C(=O)N2C[C@H](O)C[C@H]2C(=O)NCc2ccc(-c3scnc3C)cc2)C(C)(C)C)CC1 [SIAIS249020, (2S,4R)-1-((S)-2-(4-(4-((4-((3,4-dichloro-2-fluorophenyl)amino)-7-methoxyquinazolin-6-yl)oxy)piperidin-1-yl)-4-oxobutanamido)-3,3-dimethylbutanoyl)-4-hydroxy-N-(4-(4-methylthiazol-5-yl)benzyl)pyrrolidine-2-carboxamide] | IC50 [3]: 75.5 nM
